# From PubChem BioAssay (NCI)
#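 GI50 = concentration required for 50% inhibition of growth. TGI is the concentration that stops growth completely.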
# Tests used:
# Assay in all cases: NCI-60 cell line screen, 384-well format
# [1] = tested on: EKVX NSCLC
# [2] = tested on: SF-539 CNS
# [3] = tested on: OVCAR-4 ovarian
# [4] = tested on: A549 NSCLC
# [5] = tested on: A498 renal
# [6] = tested on: NCI-H522 lung
# [7] = tested on: HCT-116 colon
# [8] = tested on: LOX IMVI melanoma
# [9] = tested on: RPMI-8226 leukemia
# [10] = tested on: CAKI-1 renal
# [11] = tested on: HT29 colon
# [12] = tested on: SF-268 CNS
# [13] = tested on: NCI-H226 lung
# [14] = tested on: HOP-62 NSCLC
# [15] = tested on: UACC-257 melanoma
# [16] = tested on: HCC-2998 colon
# [17] = tested on: SK-MEL-28 melanoma
# [18] = tested on: SNB-75 CNS
# [19] = tested on: NCI-H23 lung
# [20] = tested on: COLO 205 colon
# [21] = tested on: HCT-15 colon
# [22] = tested on: CCRF-CEM leukemia
# [23] = tested on: SNB-19 CNS
# [24] = tested on: SK-OV-3 ovarian
# [25] = tested on: 786-0 renal
# [26] = tested on: KM12 colon
# [27] = tested on: NCI-H460 NSCLC
# [28] = tested on: ACHN renal
# [29] = tested on: UO-31 renal
# [30] = tested on: U251 glioblastoma
# [31] = tested on: OVCAR-3 ovarian
# [32] = tested on: BT-549 breast
# [33] = tested on: MDA-MB-435 melanoma
# [34] = tested on: SW-620 colon
# [35] = tested on: T-47D breast
# [36] = tested on: HS 578T breast
# [37] = tested on: TK-10 renal
# [38] = tested on: IGROV1 ovarian
# [39] = tested on: SR leukemia
# [40] = tested on: MALME-3M melanoma
# [41] = tested on: K-562 leukemia
# [42] = tested on: NCI/ADR-RES ovarian
# [43] = tested on: MDA-MB-468 breast
# [44] = tested on: SN12C renal
# [45] = tested on: NCI-H322M lung
# [46] = tested on: M14 melanoma
# [47] = tested on: DU-145 prostate
smiles,measurement,setting,value
CC1(N)CCN(c2cccnc2NC(=O)c2nc(-c3ncccc3C(F)(F)F)cnc2N)CC1,GI50,[1],7.15 µM
same,TGI,[1],38.9 µM
same,GI50,[2],24 µM
same,TGI,[2],> 51.2 µM
same,GI50,[3],> 69.4 µM
same,TGI,[3],> 100 µM
same,GI50,[4],25 µM
same,TGI,[4],> 65 µM
same,GI50,[5],8.29 µM
same,TGI,[5],22.8 µM
same,GI50,[6],4.86 µM
same,TGI,[6],18.8 µM
same,GI50,[7],11.6 µM
same,TGI,[7],26 µM
same,GI50,[8],19 µM
same,TGI,[8],33.6 µM
same,GI50,[9],10.4 µM
same,TGI,[9],32.8 µM
same,GI50,[10],6.11 µM
same,TGI,[10],24.2 µM
same,GI50,[11],17.2 µM
same,TGI,[11],> 58.8 µM
same,GI50,[12],19.9 µM
same,TGI,[12],47 µM
same,GI50,[13],16.9 µM
same,TGI,[13],47.4 µM
same,GI50,[14],28.8 µM
same,TGI,[14],> 77.6 µM
same,GI50,[15],7.77 µM
same,TGI,[15],20.8 µM
same,GI50,[16],17.9 µM
same,TGI,[16],33.4 µM
same,GI50,[17],24.2 µM
same,TGI,[17],> 62.3 µM
same,GI50,[18],17 µM
same,TGI,[18],48.2 µM
same,GI50,[19],29.7 µM
same,TGI,[19],> 78.7 µM
same,GI50,[20],17.9 µM
same,TGI,[20],> 54.6 µM
same,GI50,[21],20.7 µM
same,TGI,[21],56.3 µM
same,GI50,[22],15.4 µM
same,TGI,[22],28.9 µM
same,GI50,[23],27.8 µM
same,TGI,[23],> 76.7 µM
same,GI50,[24],17.8 µM
same,TGI,[24],38.6 µM
same,GI50,[25],8.25 µM
same,TGI,[25],24 µM
same,GI50,[26],0.308 µM
same,TGI,[26],20.2 µM
same,GI50,[27],17.6 µM
same,TGI,[27],32.4 µM
same,GI50,[28],22.7 µM
same,TGI,[28],> 94.7 µM
same,GI50,[29],31 µM
same,TGI,[29],> 100 µM
same,GI50,[30],13.6 µM
same,TGI,[30],30.5 µM
same,GI50,[31],15.1 µM
same,TGI,[31],44.5 µM
same,GI50,[32],8.16 µM
same,TGI,[32],20.6 µM
same,GI50,[33],> 56.1 µM
same,TGI,[33],> 100 µM
same,GI50,[34],19.3 µM
same,TGI,[34],60.6 µM
same,GI50,[35],11.6 µM
same,TGI,[35],26.9 µM
same,GI50,[36],15.9 µM
same,TGI,[36],33.2 µM
same,GI50,[37],7.5 µM
same,TGI,[37],26.1 µM
same,GI50,[38],3.28 µM
same,TGI,[38],15 µM
same,GI50,[39],9.47 µM
same,TGI,[39],21.5 µM
same,GI50,[40],14.8 µM
same,TGI,[40],28.1 µM
same,GI50,[41],16.3 µM
same,TGI,[41],31.3 µM
same,GI50,[42],> 100 µM
same,TGI,[42],> 100 µM
same,GI50,[43],13.6 µM
same,TGI,[43],28.2 µM
same,GI50,[44],21 µM
same,TGI,[44],56.8 µM
same,GI50,[45],23.7 µM
same,TGI,[45],> 60 µM
same,GI50,[46],20.3 µM
same,TGI,[46],40.3 µM
same,GI50,[47],19.3 µM
same,TGI,[47],> 58.8 µM
